Laboratory results published in patent publication US20210070748A1, “INHIBITORS OF BRUTONS TYROSINE KINASE” (Pharmacyclics LLC, priority 2015, published 2021).
pIC50: −log10 of the molar value.

Columns and labels:
Type in all cases: biochemical
LCK = LCK (Homo sapiens, UniProt P06239); assay: Inhibition of a panel of kinases, in vitro HotSpot kinase assay: LCK; details: D-compounds panel data; 1 μM ATP; read-out: IC50 LCK
JAK3 = molecular target: T1, JAK3 (Homo sapiens, UniProt P52333); assay: Inhibition of a panel of kinases, in vitro HotSpot kinase assay: JAK3; details: D-compounds panel data; 1 μM ATP; read-out: IC50 JAK3
T1 sequence (P52333 1-1124): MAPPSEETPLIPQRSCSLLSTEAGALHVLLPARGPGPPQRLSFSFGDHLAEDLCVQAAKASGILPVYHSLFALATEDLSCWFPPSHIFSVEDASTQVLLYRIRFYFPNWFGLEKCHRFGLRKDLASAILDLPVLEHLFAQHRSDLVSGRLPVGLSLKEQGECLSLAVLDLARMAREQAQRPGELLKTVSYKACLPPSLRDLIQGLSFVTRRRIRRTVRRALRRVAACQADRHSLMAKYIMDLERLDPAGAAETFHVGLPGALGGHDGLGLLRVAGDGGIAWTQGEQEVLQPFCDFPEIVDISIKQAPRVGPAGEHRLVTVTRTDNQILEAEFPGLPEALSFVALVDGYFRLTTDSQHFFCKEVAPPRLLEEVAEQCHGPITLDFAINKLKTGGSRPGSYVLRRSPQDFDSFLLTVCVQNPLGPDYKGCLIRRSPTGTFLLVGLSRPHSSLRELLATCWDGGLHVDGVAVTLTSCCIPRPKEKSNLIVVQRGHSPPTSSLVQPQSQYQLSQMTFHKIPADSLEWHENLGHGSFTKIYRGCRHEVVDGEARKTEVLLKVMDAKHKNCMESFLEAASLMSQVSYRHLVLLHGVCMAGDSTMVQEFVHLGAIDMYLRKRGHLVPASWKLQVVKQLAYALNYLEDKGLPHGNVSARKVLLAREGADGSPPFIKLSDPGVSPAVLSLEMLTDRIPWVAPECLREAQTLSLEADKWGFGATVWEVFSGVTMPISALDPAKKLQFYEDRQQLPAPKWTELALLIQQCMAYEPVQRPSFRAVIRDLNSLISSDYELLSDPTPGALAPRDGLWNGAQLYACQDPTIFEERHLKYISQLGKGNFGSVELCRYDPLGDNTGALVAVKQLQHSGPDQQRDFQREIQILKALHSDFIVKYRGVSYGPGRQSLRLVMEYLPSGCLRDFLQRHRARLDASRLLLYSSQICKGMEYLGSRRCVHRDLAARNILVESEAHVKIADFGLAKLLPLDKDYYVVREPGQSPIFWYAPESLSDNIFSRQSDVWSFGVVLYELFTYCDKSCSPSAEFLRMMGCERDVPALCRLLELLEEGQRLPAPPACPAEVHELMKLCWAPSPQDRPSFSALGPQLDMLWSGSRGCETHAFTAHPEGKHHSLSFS

EGFR = EGFR (Homo sapiens, UniProt P00533); assay: Inhibition of a panel of kinases, in vitro HotSpot kinase assay: EGFR; details: D-compounds panel data; 1 μM ATP
Protocol: The degree of inhibition of a panel of kinases is determined using the in vitro HotSpot kinase assay (purified enzymes, ^33P-ATP, an appropriate substrate and 1 μM ATP).

EGFR, sequence (P00533 25-1210): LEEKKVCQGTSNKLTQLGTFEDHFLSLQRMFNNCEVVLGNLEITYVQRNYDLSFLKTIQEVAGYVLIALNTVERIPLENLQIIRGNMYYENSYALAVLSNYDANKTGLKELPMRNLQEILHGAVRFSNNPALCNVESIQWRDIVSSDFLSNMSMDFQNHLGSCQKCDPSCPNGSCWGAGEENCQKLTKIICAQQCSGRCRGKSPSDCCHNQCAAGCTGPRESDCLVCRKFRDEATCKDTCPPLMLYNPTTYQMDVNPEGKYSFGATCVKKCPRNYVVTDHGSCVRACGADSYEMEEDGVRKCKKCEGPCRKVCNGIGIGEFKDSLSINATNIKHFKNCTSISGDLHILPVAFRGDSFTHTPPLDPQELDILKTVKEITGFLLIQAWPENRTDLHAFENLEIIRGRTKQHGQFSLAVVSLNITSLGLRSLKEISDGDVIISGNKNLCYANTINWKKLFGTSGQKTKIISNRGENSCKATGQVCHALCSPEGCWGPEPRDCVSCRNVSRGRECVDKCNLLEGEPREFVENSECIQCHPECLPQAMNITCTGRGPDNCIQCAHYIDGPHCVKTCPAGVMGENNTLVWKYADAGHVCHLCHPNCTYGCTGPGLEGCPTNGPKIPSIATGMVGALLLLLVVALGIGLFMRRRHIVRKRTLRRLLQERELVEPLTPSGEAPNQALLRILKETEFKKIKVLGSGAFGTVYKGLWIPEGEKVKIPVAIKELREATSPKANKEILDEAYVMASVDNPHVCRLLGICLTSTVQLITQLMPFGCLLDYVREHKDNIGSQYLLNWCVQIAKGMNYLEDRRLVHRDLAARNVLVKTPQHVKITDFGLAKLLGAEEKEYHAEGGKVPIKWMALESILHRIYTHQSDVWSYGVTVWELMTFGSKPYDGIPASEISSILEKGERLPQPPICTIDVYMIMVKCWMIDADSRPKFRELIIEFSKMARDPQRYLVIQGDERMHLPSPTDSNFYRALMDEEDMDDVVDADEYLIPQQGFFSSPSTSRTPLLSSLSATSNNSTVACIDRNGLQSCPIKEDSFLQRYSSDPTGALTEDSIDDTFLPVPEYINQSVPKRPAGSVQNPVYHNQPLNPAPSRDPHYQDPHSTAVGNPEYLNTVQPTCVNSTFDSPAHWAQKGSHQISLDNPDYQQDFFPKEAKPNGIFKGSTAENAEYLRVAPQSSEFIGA
LCK, sequence (P06239 whole entry): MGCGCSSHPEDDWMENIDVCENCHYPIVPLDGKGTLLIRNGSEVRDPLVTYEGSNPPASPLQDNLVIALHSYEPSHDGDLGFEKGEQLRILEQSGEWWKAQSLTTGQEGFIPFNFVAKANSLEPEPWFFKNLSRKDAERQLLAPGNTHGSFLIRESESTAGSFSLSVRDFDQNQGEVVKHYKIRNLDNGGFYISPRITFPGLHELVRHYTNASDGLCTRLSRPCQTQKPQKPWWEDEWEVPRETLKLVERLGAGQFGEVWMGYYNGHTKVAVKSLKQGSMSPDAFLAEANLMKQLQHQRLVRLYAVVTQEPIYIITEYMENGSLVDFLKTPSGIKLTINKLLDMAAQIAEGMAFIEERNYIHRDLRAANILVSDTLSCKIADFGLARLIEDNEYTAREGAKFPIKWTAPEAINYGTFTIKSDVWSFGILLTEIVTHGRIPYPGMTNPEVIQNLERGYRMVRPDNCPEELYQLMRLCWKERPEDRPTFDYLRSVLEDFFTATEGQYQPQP

Row | Compound | pIC50 (LCK) | pIC50 (JAK3) | pIC50 (EGFR)
1 | C[C@@H]1[C@H](N2CCN(C)C2=O)CCCN1c1cnc(C(N)=O)c(Nc2ccc(C3(C)CCN(C4CC4)CC3)cc2)n1 [Example D-38, 3-{[4-(1-cyclopropyl-4-methylpiperidin-4-yl)phenyl]amino}-5-[(2R,3R)-2-methyl-3-(3-methyl-2-oxoimidazolidin-1-yl)piperidin-1-yl]pyrazine-2-carboxamide] | 7.00 to 8.00 | 7.00 to 8.00 | 6.00 to 7.00
2 | Cn1cc(Nc2nc(N3CCC[C@@H](NC(=O)c4ccc(C(C)(C)O)cc4)C3)nnc2C(N)=O)cn1 [Example D-39, 3-[(3R)-3-[4-(2-hydroxypropan-2-yl)benzamido]piperidin-1-yl]-5-[(1-methyl-1H-pyrazol-4-yl)amino]-1,2,4-triazine-6-carboxamide] | 6.00 to 7.00 | 6.00 to 7.00 | < 5.00
3 | C[C@@H]1[C@H](NC(=O)c2ccc(C3CC3)cc2)CCCN1c1cnc(C(N)=O)c(Nc2ccc(OC(F)(F)F)cc2)n1 [Example D-42, 5-[(2R,3R)-3-(4-cyclopropylbenzamido)-2-methylpiperidin-1-yl]-3-{[4-(trifluoromethoxy)phenyl]amino}pyrazine-2-carboxamide] | < 5.00 | < 5.00 | < 5.00
4 | Cn1cc(Nc2nc(N3CCC[C@@H]4[C@H]3CCCN4C(=O)c3ccc(C4CC4)cc3)cnc2C(N)=O)cn1 [Example D-46, 5-I[(4aR,8aR)-5-(4-cyclopropylbenzoyl)-decahydro-1,5-naphthyridin-1-yl]-3-[(1-methyl-1H-pyrazol-4-yl)amino]pyrazine-2-carboxamide] | 6.00 to 7.00 | 5.00 to 6.00 | 6.00 to 7.00
5 | Cn1cc(Nc2nc(N3CCC[C@H]4[C@@H]3CCCN4C(=O)c3ccc(C4CC4)cc3)cnc2C(N)=O)cn1 [Example D-47, 5-[(4aS,8aS)-5-(4-cyclopropylbenzoyl)-decahydro-1,5-naphthyridin-1-yl]-3-[(1-methyl-1H-pyrazol-4-yl)amino]pyrazine-2-carboxamide] | < 5.00 | < 5.00 | < 5.00
6 | C[C@@H]1[C@H](NC(=O)c2ccc(C(C)(C)N)cc2)CCCN1c1cnc(C(N)=O)c(Nc2cnn(C)c2)n1 [Example D-51, 5-[(2R,3R)-3-[4-(2-aminopropan-2-yl)benzamido]-2-methylpiperidin-1-yl]-3-[(1-methyl-1H-pyrazol-4-yl)amino]pyrazine-2-carboxamide] | 7.00 to 8.00 | 6.00 to 7.00 | 6.00 to 7.00
7 | C[C@@H]1[C@H](NC(=O)c2ccc3c(c2)C(C)(C)CO3)CCCN1c1cnc(C(N)=O)c(Nc2cnn(C)c2)n1 [Example D-55, 5-[(2R,3R)-3-(3,3-dimethyl-2,3-dihydro-1-benzofuran-5-amido)-2-methylpiperidin-1-yl]-3-[(1-methyl-1H-pyrazol-4-yl)amino]pyrazine-2-carboxamide] | 7.00 to 8.00 | < 5.00 | 5.00 to 6.00
8 | CN(C)C(=O)N[C@@H]1CCCN(c2cnc(C(N)=O)c(Nc3ccc(C4(C)CCN(C5CCCC5)CC4)cc3)n2)[C@@H]1CO [Example D-58, 3-{[4-(1-cyclopentyl-4-methylpiperidin-4-yl)phenyl]amino}-5-[(2S,3R)-3-[(dimethylcarbamoyl)amino]-2-(hydroxymethyl)piperidin-1-yl]pyrazine-2-carboxamide] | 6.00 to 7.00 | 5.00 to 6.00 | 6.00 to 7.00
9 | CN(C)C(=O)N[C@H]1CCCN(c2cnc(C(N)=O)c(Nc3ccc(C4(C)CCN(C5CCCC5)CC4)cc3)n2)[C@H]1CO [Example D-59, 3-{[4-(1-cyclopentyl-4-methylpiperidin-4-yl)phenyl]amino}-5-[(2R,3S)-3-[(dimethylcarbamoyl)amino]-2-(hydroxymethyl)piperidin-1-yl]pyrazine-2-carboxamide] | 5.00 to 6.00 | < 5.00 | 5.00 to 6.00
10 | CN(C)C(=O)N[C@@H]1CCCN(c2cnc(C(N)=O)c(Nc3ccc(C4(C)CCN(C5CCCC5)CC4)cc3)n2)[C@H]1CO [Example D-60, 3-{[4-(1-cyclopentyl-4-methylpiperidin-4-yl)phenyl]amino}-5-[(2R,3R)-3-[(dimethylcarbamoyl)amino]-2-(hydroxymethyl)piperidin-1-yl]pyrazine-2-carboxamide] | 5.00 to 6.00 | 5.00 to 6.00 | 5.00 to 6.00

More lines, now with the values ahead:

Row | pIC50 (LCK) | pIC50 (JAK3) | pIC50 (EGFR) | Compound
11 | 7.00 to 8.00 | 6.00 to 7.00 | 6.00 to 7.00 | C[C@@H]1[C@H](NC(=O)c2ccc(C(C)(C)O)nc2)CCCN1c1cnc(C(N)=O)c(Nc2cnn(C)c2)n1 [Example D-40, 5-[(2R,3R)-3-[6-(2-hydroxypropan-2-yl)pyridine-3-amido]-2-methylpiperidin-1-yl]-3-[(1-methyl-1H-pyrazol-4-yl)amino]pyrazine-2-carboxamide]
12 | 7.00 to 8.00 | 6.00 to 7.00 | 5.00 to 6.00 | C[C@@H]1[C@H](NC(=O)c2ccc(C(C)(C)O)nc2)CCCN1c1nnc(C(N)=O)c(Nc2cnn(C)c2)n1 [Example D-41, 3-[(2R,3R)-3-[6-(2-hydroxypropan-2-yl)pyridine-3-amido]-2-methylpiperidin-1-yl]-5-[(1-methyl-1H-pyrazol-4-yl)amino]-1,2,4-triazine-6-carboxamide]
13 | 6.00 to 7.00 | 5.00 to 6.00 | 6.00 to 7.00 | Cn1cc(Nc2nc(N3CCC[C@@H]4[C@H]3CCN4C(=O)c3ccc(C4CC4)cc3)cnc2C(N)=O)cn1 [Example D-44, 5-[(3aR,7aR)-1-(4-cyclopropylbenzoyl)-octahydro-1H-pyrrolo[3,2-b]pyridin-4-yl]-3-[(1-methyl-1H-pyrazol-4-yl)amino]pyrazine-2-carboxamide]
14 | 6.00 to 7.00 | 5.00 to 6.00 | < 5.00 | Cn1cc(Nc2nc(N3CCC[C@H]4[C@@H]3CCN4C(=O)c3ccc(C4CC4)cc3)cnc2C(N)=O)cn1 [Example D-45, 5-[(3aS,7aS)-1-(4-cyclopropylbenzoyl)-octahydro-1H-pyrrolo[3,2-b]pyridin-4-yl]-3-[(1-methyl-1H-pyrazol-4-yl)amino]pyrazine-2-carboxamide]
15 | < 5.00 | 5.00 to 6.00 | < 5.00 | C[C@@H]1[C@H](NC(=O)c2ccc(C3CC3)nc2)CCCN1c1cnc(C(N)=O)c(Nc2ccc(OC3CCC(F)(F)CC3)cc2)n1 [Example D-48, 5-[(2R,3R)-3-(6-cyclopropylpyridine-3-amido)-2-methylpiperidin-1-yl]-3-({4-[(4,4-difluorocyclohexyl)oxy]phenyl}amino)pyrazine-2-carboxamide]
16 | 5.00 to 6.00 | < 5.00 | 5.00 to 6.00 | C[C@@H]1[C@H](NC(=O)N(C)C)CCCN1c1cnc(C(N)=O)c(Nc2ccc(N3CCN(C)CC3)cc2F)n1 [Example D-52, 5-[(2R,3R)-3-[(dimethylcarbamoyl)amino]-2-methylpiperidin-1-yl]-3-{[2-fluoro-4-(4-methylpiperazin-1-yl)phenyl]amino}pyrazine-2-carboxamide]
17 | 6.00 to 7.00 | 5.00 to 6.00 | 5.00 to 6.00 | C[C@@H]1[C@H](NC(=O)N(C)C)CCCN1c1cnc(C(N)=O)c(Nc2cn[nH]c2)n1 [Example D-53, 5-[(2R,3R)-3-[(dimethylcarbamoyl)amino]-2-methylpiperidin-1-yl]-3-[(1H-pyrazol-4-yl)amino]pyrazine-2-carboxamide]
18 | 7.00 to 8.00 | < 5.00 | 6.00 to 7.00 | CC1COc2cc(C(=O)N[C@@H]3CCCN(c4cnc(C(N)=O)c(Nc5cnn(C)c5)n4)[C@@H]3C)ccc2C1 (stereo partly drawn) [Example D-56, 3-[(1-methyl-1H-pyrazol-4-yl)amino]-5-[(2R,3R)-2-methyl-3-(3-methyl-3,4-dihydro-2H-1-benzopyran-7-amido)piperidin-1-yl]pyrazine-2-carboxamide]
19 | 6.00 to 7.00 | 5.00 to 6.00 | 5.00 to 6.00 | C[C@@H]1[C@H](NC(=O)c2cnn(C(C)(C)C)c2)CCCN1c1cnc(C(N)=O)c(Nc2cnn(C)c2)n1 [Example D-57, 5-[(2R,3R)-3-(1-tert-butyl-1H-pyrazole-4-amido)-2-methylpiperidin-1-yl]-3-[(1-methyl-1H-pyrazol-4-yl)amino]pyrazine-2-carboxamide]
